Reference: US11412737B2, “Mixtures of beflubutamid or optically enriched forms thereof with a second herbicide” (FMC Corporation, priority 2016, dated 2022)

Tests used:
Silky windgrass (APSEV) = test: post-emergence test, weed control; format: in vivo; conditions: post-emergent, 28 DAT, height 1-1.5 cm, rate g ai/ha by row: r25 94, r26 125, r27 188, r28 125, r29 250, r30 94+125, r31 125+125, r32 188+125, r33 94+250, r34 125+250, r35 188+250
Annual bluegrass (POAAN) = test: post-emergence test, weed control; format: in vivo, Poa annua; conditions: post-emergent, 28 DAT, height 1-2 cm; rate g ai/ha by row: r7 94, r8 125, r9 188, r10 125, r11 250, r12 94+125, r13 125+125, r14 188+125, r15 94+250, r16 125+250, r17 188+250
Method: (§1) Test compositions containing the test compounds were diluted with water to provide the appropriate test rate concentrations.
(§2) For post-emergence testing, seeds of each species for each rate of application of each herbicide solution were planted in 7.5 cm×7.5 cm plastic pots filled with potting soil. The seeds were germinated and the resulting plants were allowed to grow in a greenhouse until they reached a growth stage, such as height, suitable for testing. Treatments were applied using compressed air in a track spray chamber at 30 gallons/acre (280 L/ha) using a TeeJet 8001E nozzle at 40 psi (2.76 bars). Pots of post-emergent treated plants were returned to the greenhouse and not watered for 24 hours after treatment. Thereafter they were regularly watered and fertilized for the duration of the test.
(§3) The control of weeds was evaluated in each experimental test at 21 for wheat and 28 days after treatment (DAT) for all species. Data were analyzed using Minitab software at 95% confidence interval. The results, shown as an average of the replications, were compared with results observed in untreated control flats in the same tests. Percent control was determined by a method similar to the 0 to 100 rating system disclosed in “Research Methods in Weed Science,” 2nd ed., B. Truelove, Ed.; Southern Weed Science Society; Auburn University, Auburn, Ala., 1977. The rating system is as follows in Table 1.

Green foxtail (SETVI) = test: post-emergence test, weed control; format: in vivo, Setaria viridis; conditions: post-emergent, 28 DAT, height 4-5 cm, rate g ai/ha by row: r7 94, r8 125, r9 188, r10 125, r11 250, r12 94+125, r13 125+125, r14 188+125, r15 94+250, r16 125+250, r17 188+250
Method: as §1, §2, §3

Cheat grass (BROSE) = test: post-emergence test, weed control; format: in vivo; conditions: post-emergent, 28 DAT, height 7 cm; rate g ai/ha by row: r7 94, r8 125, r9 188, r10 125, r11 250, r12 94+125, r13 125+125, r14 188+125, r15 94+250, r16 125+250, r17 188+250
Method: as §1, §2, §3

Shattercane (SOBIA) = test: post-emergence test, weed control; format: in vivo; conditions: post-emergent, 28 DAT, height 8 cm, rate g ai/ha by row: r25 94, r26 125, r27 188, r28 125, r29 250, r30 94+125, r31 125+125, r32 188+125, r33 94+250, r34 125+250, r35 188+250
Method: as §1, §2, §3

Redrice (ORYSA) = test: post-emergence test, weed control; format: in vivo; conditions: post-emergent, 28 DAT, height 8 cm, rate g ai/ha by row: r25 94, r26 125, r27 188, r28 125, r29 250, r30 94+125, r31 125+125, r32 188+125, r33 94+250, r34 125+250, r35 188+250
Method: as §1, §2, §3

Common ragweed (AMBEL) = test: post-emergence test, weed control; format: in vivo; conditions: post-emergent, 28 DAT, height 3-4 cm, rate g ai/ha by row: r7 94, r8 125, r9 188, r10 125, r11 250, r12 94+125, r13 125+125, r14 188+125, r15 94+250, r16 125+250, r17 188+250
Method: as §1, §2, §3

Large crabgrass (DIGSA) = test: post-emergence test, weed control; format: in vivo; conditions: post-emergent, 28 DAT; for percentage of weed control, DIGSA: height 3-5 cm, rate g ai/ha by row: r25 94, r26 125, r27 188, r28 125, r29 250, r30 94+125, r31 125+125, r32 188+125, r33 94+250, r34 125+250, r35 188+250
Method: as §1, §2, §3

Rice flatsedge (CYPIR) = test: post-emergence test, weed control; format: in vivo; conditions: post-emergent, 28 DAT, height 1-2 cm; rate g ai/ha by row: r25 94, r26 125, r27 188, r28 125, r29 250, r30 94+125, r31 125+125, r32 188+125, r33 94+250, r34 125+250, r35 188+250
Method: as §1, §2, §3

[1] = system: Common lambsquarters (CHEAL); test: pre-emergence test, weed control; format: in vivo, Chenopodium album; conditions: pre-emergent, 28 DAT; BFL at 125 g/ha, DCI at 125 g/ha, combination of both
Method: as §1
For pre-emergence testing, four disposable fiber flats (6 inch by 10 inch) for each rate of application of each herbicide solution were filled with top soil, to which seeds of each species were planted in furrows made by a template pressed on the top of the soil. The furrows were covered with soil after planting the seed and were watered well before application of the test compounds.
Fiber flats designated for treatment were placed in a spray chamber having a static platform and a movable sprayer and the height of the spray nozzle was 10.5 inches above the soil level. Once the sprayer was calibrated using water for spray volume of 30 gallons per acre, flats were sprayed with sprayer at a speed to receive a coverage equivalent of 30 gallons per acre. The application rates are those shown in the Tables below for the individual herbicidal solutions and the herbicide compositions of this invention. The pre-emergence flats were immediately placed in the greenhouse and watered lightly after treatment. Thereafter they were regularly watered and fertilized for the duration of the test.
as §3

Wild oat (AVEFA) = test: post-emergence test, weed control; format: in vivo, Avena fatua; conditions: post-emergent, 28 DAT; for percentage of weed control, AVEFA: height 11 cm, rate g ai/ha by row: r25 94, r26 125, r27 188, r28 125, r29 250, r30 94+125, r31 125+125, r32 188+125, r33 94+250, r34 125+250, r35 188+250; for control of wild oats (AVEFA): DCI at 250 g/ha, combination of both
Method: as §1, §2, §3

CC1(C)CON(Cc2ccc(Cl)cc2Cl)C1=O [DCI, 2-(2,4-dichlorophenyl)methyl-4,4-dimethyl-3-isoxazolidinone]
percentage of weed control, APSEV (Silky windgrass (APSEV); 125 g ai/ha): 5%
percentage of weed control, APSEV (Silky windgrass (APSEV); 250 g ai/ha): 0%
percentage of weed control, POAAN (Annual bluegrass (POAAN)): 0%
percentage of weed control, SETVI (Green foxtail (SETVI); 125 g ai/ha): 6%
percentage of weed control, SETVI (Green foxtail (SETVI); 250 g ai/ha): 5%
percentage of weed control, BROSE (Cheat grass (BROSE)): 0%
percentage of weed control, SOBIA (Shattercane (SOBIA); 125 g ai/ha): 1%
percentage of weed control, SOBIA (Shattercane (SOBIA); 250 g ai/ha): 4%
percentage of weed control, ORYSA (Redrice (ORYSA); 125 g ai/ha): 26%
percentage of weed control, ORYSA (Redrice (ORYSA); 250 g ai/ha): 42%
percentage of weed control, AMBEL (Common ragweed (AMBEL); 125 g ai/ha): 73%
percentage of weed control, AMBEL (Common ragweed (AMBEL); 250 g ai/ha): 77%
percentage of weed control, DIGSA (Large crabgrass (DIGSA); 125 g ai/ha): 17%
percentage of weed control, DIGSA (Large crabgrass (DIGSA); 250 g ai/ha): 22%
control of large crabgrass (DIGSA) (Large crabgrass (DIGSA); BFL at 188 g/ha, DCI at 125 g/ha, combination of both): 17%
percentage of weed control, CYPIR (Rice flatsedge (CYPIR)): 0%
control of lambsquarters (CHEAL) [1]: 24%
percentage of weed control, AVEFA (Wild oat (AVEFA); 125 g ai/ha): 60%
percentage of weed control, AVEFA (Wild oat (AVEFA); 250 g ai/ha): 61%
control of wild oats (AVEFA) (Wild oat (AVEFA); BFL at 125 g/ha): 61%
control of wild oats (AVEFA) (Wild oat (AVEFA); BFL at 188 g/ha): 61%
